14 compounds from ChEMBL document CHEMBL6182926, “Design, Synthesis, and Biological Activity Evaluation of Deuterated Diphenyl Azole Alcohol-Based CYP51 Inhibitors” (J Med Chem, 2025) can be followed below.

The structures appear in SMILES notation. ≈ marks a conversion by molar mass, not a printed value.

Holding throughout (assay type): functional
For one assay, the system named is Cryptococcus neoformans. As to the kind of experiment: Antifungal activity against Cryptococcus neoformans CGMCC 2.3161 assessed as inhibition of visible growth.
Another assay has as its system Nakaseomyces glabratus. Description: Antifungal activity against Clinical isolate Candida glabrata assessed as inhibition of visible growth.
The test system of the next assay is Pichia kudriavzevii. As to the kind of experiment: Antifungal activity against Candida krusei AS 2.1045 assessed as inhibition of visible growth.
Assay [1] deals with Candida albicans. As to the kind of experiment: Antifungal activity against Candida albicans SC 5314 assessed as inhibition of visible growth.
The test system of assay [2] is Candida albicans. Description: Antifungal activity against Candida albicans CPCC 400616 assessed as inhibition of visible growth.
The next assay concerns Candida parapsilosis. As to the kind of experiment: Antifungal activity against Candida parapsilosis GIM 2.190 assessed as inhibition of visible growth. As to conditions: Lodderomyces parapsilosis.
The test system of the next assay is Candida tropicalis. As to the kind of experiment: Antifungal activity against Candida tropicalis CGMCC 2.3739 assessed as inhibition of visible growth.

`CN(Cc1ccc(-c2ccc(C(F)(F)F)cc2)cc1)CC(O)(Cn1cncn1)c1ccc(F)cc1F` (stereo not drawn): the MIC80 is 0.05 µg/mL (≈ 0.0995 µM) in the assay with Cryptococcus neoformans; 0.025 µg/mL (≈ 0.0498 µM) with Nakaseomyces glabratus; 0.025 µg/mL (≈ 0.0498 µM) in the assay with Pichia kudriavzevii; 0.012 µg/mL (≈ 0.0239 µM) in the assay on Candida albicans [1]; 0.012 µg/mL (≈ 0.0239 µM) in the assay on Candida albicans [2]; 0.006 µg/mL (≈ 0.0119 µM) in the assay with Candida parapsilosis. For the same compound, the MIC80 in the assay on Candida tropicalis worked out at 0.012 µg/mL (≈ 0.0239 µM).
With `CN(Cc1cnc(-c2ccc(C(F)(F)F)cc2)s1)CC(O)(Cn1cncn1)c1ccc(F)cc1F` (stereo not drawn), the MIC80 in the assay on Cryptococcus neoformans was 0.4 µg/mL (≈ 0.785 µM); in the assay with Nakaseomyces glabratus it was 0.2 µg/mL (≈ 0.393 µM); in the assay with Pichia kudriavzevii, 0.2 µg/mL (≈ 0.393 µM); in the assay with Candida albicans [1] it was 0.025 µg/mL (≈ 0.0491 µM); in the assay with Candida albicans [2], 0.025 µg/mL (≈ 0.0491 µM); in the assay on Candida parapsilosis it was 0.05 µg/mL (≈ 0.0981 µM). Moreover, the MIC80 in the assay with Candida tropicalis amounted to 0.006 µg/mL (≈ 0.0118 µM).
Take `CN(Cc1ccc(-c2ccc(Cl)cc2)s1)CC(O)(Cn1cncn1)c1ccc(F)cc1F` (stereo not drawn): the MIC80 in the assay on Cryptococcus neoformans stood at 0.1 µg/mL (≈ 0.211 µM); in the assay on Nakaseomyces glabratus, 0.2 µg/mL (≈ 0.421 µM); in the assay with Pichia kudriavzevii it was 0.05 µg/mL (≈ 0.105 µM); in the assay on Candida albicans [1] it was 0.006 µg/mL (≈ 0.0126 µM); in the assay on Candida albicans [2], 0.012 µg/mL (≈ 0.0253 µM); in the assay with Candida parapsilosis, 0.006 µg/mL (≈ 0.0126 µM). Besides, in the assay with Candida tropicalis, the MIC80 is 0.006 µg/mL (≈ 0.0126 µM).
`CN(Cc1ccc(-c2ccc(-c3ccccc3)cc2)cn1)CC(O)(Cn1cncn1)c1ccc(F)cc1F` (stereo not drawn): the MIC80 with Cryptococcus neoformans came out at 0.05 µg/mL (≈ 0.0977 µM); in the assay on Nakaseomyces glabratus it was 0.1 µg/mL (≈ 0.195 µM); with Pichia kudriavzevii, 0.1 µg/mL (≈ 0.195 µM); in the assay with Candida albicans [1] it was 0.012 µg/mL (≈ 0.0235 µM); with Candida albicans [2], 0.012 µg/mL (≈ 0.0235 µM); in the assay on Candida parapsilosis it was 0.012 µg/mL (≈ 0.0235 µM). For the same compound, in the assay with Candida tropicalis, the MIC80 turned out to be 0.012 µg/mL (≈ 0.0235 µM).
Consider `CN(Cc1ccc(-c2ccc(C#N)cc2)cn1)CC(O)(Cn1cncn1)c1ccc(F)cc1F` (stereo not drawn), for which the MIC80 in the assay on Cryptococcus neoformans amounted to 0.8 µg/mL (≈ 1.74 µM); with Nakaseomyces glabratus, 1.6 µg/mL (≈ 3.47 µM); with Pichia kudriavzevii it was 0.2 µg/mL (≈ 0.434 µM); with Candida albicans [1], 0.012 µg/mL (≈ 0.0261 µM); in the assay with Candida albicans [2] it was 0.012 µg/mL (≈ 0.0261 µM); in the assay on Candida parapsilosis, 0.1 µg/mL (≈ 0.217 µM). In addition, the MIC80 in the assay on Candida tropicalis was found to be 0.012 µg/mL (≈ 0.0261 µM).
With `CN(Cc1nc(-c2ccc(Cl)cc2)cs1)CC(O)(Cn1cncn1)c1ccc(F)cc1F` (stereo not drawn), the MIC80 was 0.8 µg/mL (≈ 1.68 µM) in the assay on Cryptococcus neoformans; 0.4 µg/mL (≈ 0.84 µM) in the assay on Nakaseomyces glabratus; 0.2 µg/mL (≈ 0.42 µM) in the assay on Pichia kudriavzevii; 0.012 µg/mL (≈ 0.0252 µM) in the assay with Candida albicans [1]; 0.012 µg/mL (≈ 0.0252 µM) in the assay with Candida albicans [2]; 0.012 µg/mL (≈ 0.0252 µM) with Candida parapsilosis. In addition, the MIC80 in the assay on Candida tropicalis was determined as 0.025 µg/mL (≈ 0.0525 µM).
On to `CN(Cc1ccc(-c2ccc(OC(F)(F)F)cc2)nc1)CC(O)(Cn1cncn1)c1ccc(F)cc1F` (stereo not drawn), for which the MIC80 was 0.05 µg/mL (≈ 0.0963 µM) with Cryptococcus neoformans; 0.05 µg/mL (≈ 0.0963 µM) in the assay on Nakaseomyces glabratus; 0.025 µg/mL (≈ 0.0481 µM) with Pichia kudriavzevii; 0.012 µg/mL (≈ 0.0231 µM) in the assay with Candida albicans [1]; 0.012 µg/mL (≈ 0.0231 µM) in the assay on Candida albicans [2]; 0.006 µg/mL (≈ 0.0116 µM) with Candida parapsilosis. Also, in the assay with Candida tropicalis, the MIC80 was 0.025 µg/mL (≈ 0.0481 µM).
`CN(Cc1ccc(-c2ccc(Cl)cc2)cc1F)CC(O)(Cn1cncn1)c1ccc(F)cc1F` (stereo not drawn): the MIC80 in the assay on Cryptococcus neoformans is 0.012 µg/mL (≈ 0.0246 µM); with Nakaseomyces glabratus, 0.025 µg/mL (≈ 0.0513 µM); in the assay on Pichia kudriavzevii it was 0.025 µg/mL (≈ 0.0513 µM); with Candida albicans [1] it was 0.006 µg/mL (≈ 0.0123 µM); in the assay with Candida albicans [2], 0.006 µg/mL (≈ 0.0123 µM); with Candida parapsilosis, 0.006 µg/mL (≈ 0.0123 µM). In addition, the MIC80 with Candida tropicalis amounted to 0.006 µg/mL (≈ 0.0123 µM).
On to `CN(Cc1ccc(-c2ccc(F)cc2)cn1)CC(O)(Cn1cncn1)c1ccc(F)cc1F` (stereo not drawn), for which the MIC80 was 0.1 µg/mL (≈ 0.221 µM) in the assay with Cryptococcus neoformans; 0.4 µg/mL (≈ 0.882 µM) in the assay on Nakaseomyces glabratus; 0.05 µg/mL (≈ 0.11 µM) with Pichia kudriavzevii; 0.012 µg/mL (≈ 0.0265 µM) with Candida albicans [1]; 0.012 µg/mL (≈ 0.0265 µM) with Candida albicans [2]; 0.012 µg/mL (≈ 0.0265 µM) in the assay with Candida parapsilosis. In addition, the MIC80 in the assay with Candida tropicalis was 0.012 µg/mL (≈ 0.0265 µM).
Turning to `CN(Cc1ccc(-c2ccccc2)cn1)CC(O)(Cn1cncn1)c1ccc(F)cc1F` (stereo not drawn), the MIC80 in the assay on Cryptococcus neoformans was 0.1 µg/mL (≈ 0.23 µM); in the assay on Nakaseomyces glabratus, 0.8 µg/mL (≈ 1.84 µM); in the assay on Pichia kudriavzevii, 0.2 µg/mL (≈ 0.459 µM); in the assay with Candida albicans [1], 0.012 µg/mL (≈ 0.0276 µM); in the assay on Candida albicans [2], 0.025 µg/mL (≈ 0.0574 µM); in the assay with Candida parapsilosis it was 0.025 µg/mL (≈ 0.0574 µM). In addition, in the assay on Candida tropicalis, the MIC80 is 0.025 µg/mL (≈ 0.0574 µM).
Turning to `CN(Cc1ccc(-c2ccccc2Cl)cn1)CC(O)(Cn1cncn1)c1ccc(F)cc1F` (stereo not drawn), the MIC80 in the assay on Cryptococcus neoformans was found to be 0.1 µg/mL (≈ 0.213 µM); in the assay on Nakaseomyces glabratus, 0.8 µg/mL (≈ 1.7 µM); in the assay with Pichia kudriavzevii it was 0.4 µg/mL (≈ 0.851 µM); in the assay on Candida albicans [1], 0.025 µg/mL (≈ 0.0532 µM); in the assay on Candida albicans [2], 0.1 µg/mL (≈ 0.213 µM); with Candida parapsilosis it was 0.025 µg/mL (≈ 0.0532 µM). In the assay on Candida tropicalis, the MIC80 was determined as 0.012 µg/mL (≈ 0.0255 µM).
`CN(Cc1ccc(-c2ccc(OCC(F)(F)F)cc2)cn1)CC(O)(Cn1cncn1)c1ccc(F)cc1F` (stereo not drawn): the MIC80 with Cryptococcus neoformans came to 0.1 µg/mL (≈ 0.187 µM); in the assay on Nakaseomyces glabratus, 0.1 µg/mL (≈ 0.187 µM); with Pichia kudriavzevii it was 0.05 µg/mL (≈ 0.0937 µM); in the assay with Candida albicans [1], 0.012 µg/mL (≈ 0.0225 µM); in the assay with Candida albicans [2], 0.012 µg/mL (≈ 0.0225 µM); in the assay on Candida parapsilosis it was 0.012 µg/mL (≈ 0.0225 µM). In the assay on Candida tropicalis, the MIC80 came to 0.012 µg/mL (≈ 0.0225 µM).
As to `CN(Cc1ccc(-c2ccc(C(F)(F)F)cc2)nc1)CC(O)(Cn1cncn1)c1ccc(F)cc1F` (stereo not drawn), the MIC80 with Cryptococcus neoformans came to 0.025 µg/mL (≈ 0.0497 µM); in the assay with Nakaseomyces glabratus it was 0.2 µg/mL (≈ 0.397 µM); in the assay with Pichia kudriavzevii, 0.025 µg/mL (≈ 0.0497 µM); in the assay with Candida albicans [1], 0.012 µg/mL (≈ 0.0238 µM); with Candida albicans [2], 0.012 µg/mL (≈ 0.0238 µM); in the assay on Candida parapsilosis, 0.006 µg/mL (≈ 0.0119 µM). The MIC80 in the assay on Candida tropicalis came to 0.012 µg/mL (≈ 0.0238 µM).
For `CN(Cc1cnc(-c2ccc(OC(F)(F)F)cc2)s1)CC(O)(Cn1cncn1)c1ccc(F)cc1F` (stereo not drawn), the MIC80 was 0.1 µg/mL (≈ 0.19 µM) with Cryptococcus neoformans; 0.2 µg/mL (≈ 0.381 µM) in the assay on Nakaseomyces glabratus; 0.1 µg/mL (≈ 0.19 µM) with Pichia kudriavzevii; 0.025 µg/mL (≈ 0.0476 µM) with Candida albicans [1]; 0.025 µg/mL (≈ 0.0476 µM) in the assay with Candida albicans [2]; 0.05 µg/mL (≈ 0.0951 µM) with Candida parapsilosis. In the assay on Candida tropicalis, the MIC80 was 0.006 µg/mL (≈ 0.0114 µM).
